Source: PubChem BioAssay (NCI)
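Exposure lasted 48 hours, with cells grown in 96-well plates and compounds tested at five concentrations. GI50 marks 50% less growth. TGI: total growth inhibition.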

Legend:
Assay in all cases: inhibition of tumour cell growth, NCI panel, 48 h
NCI-H522 lung = test system: NCI-H522 lung
SF-539 CNS = test system: SF-539 CNS
A549 NSCLC = test system: A549 NSCLC
UO-31 renal = test system: UO-31 renal
SR leukemia = test system: SR leukemia
HOP-92 NSCLC = test system: HOP-92 NSCLC
UACC-257 melanoma = test system: UACC-257 melanoma
SK-MEL-5 melanoma = test system: SK-MEL-5 melanoma
SK-MEL-2 melanoma = test system: SK-MEL-2 melanoma
DU-145 prostate = test system: DU-145 prostate
SF-268 CNS = test system: SF-268 CNS
786-0 renal = test system: 786-0 renal
MALME-3M melanoma = test system: MALME-3M melanoma
SNB-19 CNS = test system: SNB-19 CNS
OVCAR-8 ovarian = test system: OVCAR-8 ovarian
HCT-15 colon = test system: HCT-15 colon
HT29 colon = test system: HT29 colon
MDA-MB-435 = test system: MDA-MB-435
HCC-2998 colon = test system: HCC-2998 colon
COLO 205 colon = test system: COLO 205 colon
HS 578T breast = test system: HS 578T breast
UACC-62 melanoma = test system: UACC-62 melanoma
CAKI-1 renal = test system: CAKI-1 renal
SN12C renal = test system: SN12C renal
IGROV1 ovarian = test system: IGROV1 ovarian
CCRF-CEM leukemia = test system: CCRF-CEM leukemia
KM12 colon = test system: KM12 colon
M14 melanoma = test system: M14 melanoma
MCF7 breast = test system: MCF7 breast
A498 renal = test system: A498 renal
LOX IMVI melanoma = test system: LOX IMVI melanoma
SNB-75 CNS = test system: SNB-75 CNS
SW-620 colon = test system: SW-620 colon
RXF 393 renal = test system: RXF 393 renal
MOLT-4 leukemia = test system: MOLT-4 leukemia
BT-549 breast = test system: BT-549 breast
OVCAR-4 ovarian = test system: OVCAR-4 ovarian
NCI-H23 lung = test system: NCI-H23 lung
SK-OV-3 ovarian = test system: SK-OV-3 ovarian
U251 CNS = test system: U251 CNS
NCI-H460 lung = test system: NCI-H460 lung
SF-295 CNS = test system: SF-295 CNS
RPMI-8226 leukemia = test system: RPMI-8226 leukemia
PC-3 prostate = test system: PC-3 prostate
HOP-62 NSCLC = test system: HOP-62 NSCLC
MDA-MB-231 breast = test system: MDA-MB-231 breast
K-562 leukemia = test system: K-562 leukemia
NCI-H226 lung = test system: NCI-H226 lung
T-47D breast = test system: T-47D breast
ACHN renal = test system: ACHN renal
HCT-116 colon = test system: HCT-116 colon
OVCAR-5 ovarian = test system: OVCAR-5 ovarian
SK-MEL-28 melanoma = test system: SK-MEL-28 melanoma
OVCAR-3 ovarian = test system: OVCAR-3 ovarian
NCI/ADR-RES ovarian = test system: NCI/ADR-RES ovarian
TK-10 renal = test system: TK-10 renal

COc1cccc(Cn2c(-c3nonc3NC(C)=O)nc3ccccc32)c1
GI50 (NCI-H522 lung): 2950 nM
TGI (NCI-H522 lung): 90.3 µM
GI50 (SF-539 CNS): 3.65 µM
TGI (SF-539 CNS): > 100 µM
GI50 (A549 NSCLC): 5.81 µM
TGI (A549 NSCLC): > 100 µM
GI50 (UO-31 renal): 3.72 µM
TGI (UO-31 renal): > 100 µM
GI50 (SR leukemia): 4.14 µM
TGI (SR leukemia): > 100 µM
GI50 (HOP-92 NSCLC): 2160 nM
TGI (HOP-92 NSCLC): 17.6 µM
GI50 (UACC-257 melanoma): 5.71 µM
TGI (UACC-257 melanoma): 88.4 µM
GI50 (SK-MEL-5 melanoma): 3.76 µM
TGI (SK-MEL-5 melanoma): > 100 µM
GI50 (SK-MEL-2 melanoma): 3.07 µM
TGI (SK-MEL-2 melanoma): 18.9 µM
GI50 (DU-145 prostate): 3.42 µM
TGI (DU-145 prostate): 83.9 µM
GI50 (SF-268 CNS): 7.82 µM
TGI (SF-268 CNS): > 100 µM
GI50 (786-0 renal): 10.4 µM
TGI (786-0 renal): > 100 µM
GI50 (MALME-3M melanoma): 3.31 µM
TGI (MALME-3M melanoma): 43.8 µM
GI50 (SNB-19 CNS): 7.15 µM
TGI (SNB-19 CNS): > 100 µM
GI50 (OVCAR-8 ovarian): 6.3 µM
TGI (OVCAR-8 ovarian): > 100 µM
GI50 (HCT-15 colon): 3.59 µM
TGI (HCT-15 colon): > 100 µM
GI50 (HT29 colon): 3.28 µM
TGI (HT29 colon): > 100 µM
GI50 (MDA-MB-435): 642 nM
TGI (MDA-MB-435): 5.48 µM
GI50 (HCC-2998 colon): 5.83 µM
TGI (HCC-2998 colon): > 100 µM
GI50 (COLO 205 colon): 3.45 µM
TGI (COLO 205 colon): > 100 µM
GI50 (HS 578T breast): 1870 nM
TGI (HS 578T breast): 7.24 µM
GI50 (UACC-62 melanoma): 3.37 µM
TGI (UACC-62 melanoma): > 100 µM
GI50 (CAKI-1 renal): 2050 nM
TGI (CAKI-1 renal): > 100 µM
GI50 (SN12C renal): 5.48 µM
TGI (SN12C renal): > 100 µM
GI50 (IGROV1 ovarian): 7.98 µM
TGI (IGROV1 ovarian): > 100 µM
GI50 (CCRF-CEM leukemia): > 100 µM
TGI (CCRF-CEM leukemia): > 100 µM
GI50 (KM12 colon): 4 µM
TGI (KM12 colon): > 100 µM
GI50 (M14 melanoma): 4.02 µM
TGI (M14 melanoma): > 100 µM
GI50 (MCF7 breast): 4.04 µM
TGI (MCF7 breast): > 100 µM
GI50 (A498 renal): 426 nM
TGI (A498 renal): 6.53 µM
GI50 (LOX IMVI melanoma): 6.1 µM
TGI (LOX IMVI melanoma): > 100 µM
GI50 (SNB-75 CNS): 144 nM
TGI (SNB-75 CNS): 3.85 µM
GI50 (SW-620 colon): 3.08 µM
TGI (SW-620 colon): > 100 µM
GI50 (RXF 393 renal): 1920 nM
TGI (RXF 393 renal): 5.74 µM
GI50 (MOLT-4 leukemia): 5.63 µM
TGI (MOLT-4 leukemia): > 100 µM
GI50 (BT-549 breast): 8.79 µM
TGI (BT-549 breast): > 100 µM
GI50 (OVCAR-4 ovarian): 15.6 µM
TGI (OVCAR-4 ovarian): > 100 µM
GI50 (NCI-H23 lung): 6.42 µM
TGI (NCI-H23 lung): > 100 µM
GI50 (SK-OV-3 ovarian): 3.07 µM
TGI (SK-OV-3 ovarian): > 100 µM
GI50 (U251 CNS): 3.94 µM
TGI (U251 CNS): 35.5 µM
GI50 (NCI-H460 lung): 2450 nM
TGI (NCI-H460 lung): > 100 µM
GI50 (SF-295 CNS): 1850 nM
TGI (SF-295 CNS): 78.7 µM
GI50 (RPMI-8226 leukemia): 5.34 µM
TGI (RPMI-8226 leukemia): > 100 µM
GI50 (PC-3 prostate): 2830 nM
TGI (PC-3 prostate): > 100 µM
GI50 (HOP-62 NSCLC): 8.53 µM
TGI (HOP-62 NSCLC): > 100 µM
GI50 (MDA-MB-231 breast): 3.62 µM
TGI (MDA-MB-231 breast): > 100 µM
GI50 (K-562 leukemia): 4.02 µM
TGI (K-562 leukemia): > 100 µM
GI50 (NCI-H226 lung): 5.46 µM
TGI (NCI-H226 lung): > 100 µM
GI50 (T-47D breast): 6.17 µM
TGI (T-47D breast): > 100 µM
GI50 (ACHN renal): 8.41 µM
TGI (ACHN renal): > 100 µM
GI50 (HCT-116 colon): 4.94 µM
TGI (HCT-116 colon): > 100 µM
GI50 (OVCAR-5 ovarian): 4.04 µM
TGI (OVCAR-5 ovarian): > 100 µM
GI50 (SK-MEL-28 melanoma): 6.17 µM
TGI (SK-MEL-28 melanoma): > 100 µM
GI50 (OVCAR-3 ovarian): 6.56 µM
TGI (OVCAR-3 ovarian): > 100 µM
GI50 (NCI/ADR-RES ovarian): 3.24 µM
TGI (NCI/ADR-RES ovarian): > 100 µM
GI50 (TK-10 renal): 2650 nM
TGI (TK-10 renal): 40.8 µM
